US20250235543A1, “MODIFIED PROTEINS AND PROTEIN DEGRADERS” (Cullgen (Shanghai), Inc., priority 2021, published 2025)

Tests used:
Format in all cases: cell-based
Calu-1 = experiment: Cell viability assay, Calu-1; conditions: Homo sapiens, 72 h; Calu-1, NSCLC, 3 days; read-out: Cellular Anti-proliferation activity (IC50)
Procedure: (§1) Cells were treated with CDK4/6 inhibitors palbociclib, ribociclib, or abemaciclib, or heterobifunctional compounds CPD-002 or CPD-031 following a 9-point serial dilution for 3 days.
(§2) Cells were seeded at a density of 2,000-5,000 cells per well in 96-well assay plates and treated with test compounds following a 10-point serial dilution for 3-6 days. Cell viability was determined using the CellTiter-Lumi assay kit according to the manufacturer's instructions. The dose-response curves were determined and IC50 values were calculated using the GraphPad Prism software following a nonlinear regression (least squares fit) method. Data presented was mean±standard deviation (SD) unless otherwise indicated.

NCI-H522 = experiment: Cell viability assay, NCI-H522; conditions: Homo sapiens, 72 h; NCI-H522, NSCLC, 3 days; read-out: Cellular Anti-proliferation activity (IC50)
Procedure: as §1, §2

MDA-MB-157 = experiment: Cell viability assay, MDA-MB-157; conditions: Homo sapiens, 72 h; MDA-MB-157, TNBC, 3 days; read-out: Cellular Anti-proliferation activity (IC50)
Procedure: as §1, §2

MDA-MB-453 = experiment: Cell viability assay, MDA-MB-453; conditions: Homo sapiens, 72 h; MDA-MB-453, TNBC, 3 days; read-out: Cellular Anti-proliferation activity (IC50)
Procedure: as §1, §2

MDA-MB-468 = experiment: Cell viability assay, MDA-MB-468; conditions: Homo sapiens, 72 h; MDA-MB-468, TNBC, 3 days; read-out: Cellular Anti-proliferation activity (IC50)
Procedure: as §1, §2

Hs578T = experiment: Cell viability assay, Hs578T; conditions: Homo sapiens, Hs-578T, 72 h, TNBC, 3 days, read-out: Cellular Anti-proliferation activity (IC50)
Procedure: as §1, §2

BT-549 = experiment: Cell viability assay, BT-549; conditions: Homo sapiens, 72 h; BT-549, TNBC, 3 days; read-out: Cellular Anti-proliferation activity (IC50)
Procedure: as §1, §2

KURAMOCHI = experiment: Cell viability assay, KURAMOCHI; conditions: 72 h, OC, 3 days, read-out: Cellular Anti-proliferation activity (IC50)
Procedure: as §1, §2

OVCAR3 = experiment: Cell viability assay, OVCAR3; conditions: Homo sapiens, OVCAR-3, 72 h; OVCAR3, OC, 3 days; read-out: Cellular Anti-proliferation activity (IC50)
Procedure: as §1, §2

MIA PaCa-2 = experiment: Cell viability assay, MIA PaCa-2; conditions: Homo sapiens, 72 h; MIA PaCa-2, PC, 3 days; read-out: Cellular Anti-proliferation activity (IC50)
Procedure: as §1, §2

Cal-62 = experiment: Cell viability assay, Cal-62; conditions: Homo sapiens, 72 h; Cal-62, TC, 3 days; read-out: Cellular Anti-proliferation activity (IC50)
Procedure: as §1, §2

P300/CBP = P300/CBP cellular protein degradation
Procedure: Cultured cells were washed with cold PBS once and lysed in cold RIPA buffer supplemented with protease inhibitors and phosphatase inhibitors (Beyotime Biotechnology). The solutions were then incubated at 4° C. for 30 min with gentle agitation to fully lysed cells. Cell lysates were centrifuged at 13,000 rpm for 10 min at 4° C. and pellets were discarded. Total protein concentrations in the lysates were determined following BCA assays (Beyotime Biotechnology). Cell lysates were mixed with Laemmli loading buffer and heated at 99° C. for 5 min. Proteins were resolved on SDS-PAGE and visualized using Western ECL Substrate kits on a ChemiDoc MP Imaging system (Bio-Rad). Protein bands were quantitated using the Image Lab software provided by Bio-Rad.

T47D cells = experiment: Flow cytometric analysis of Annexin V/7-AAD stained T47D cells; conditions: 6 days
Procedure: ER^+ breast cancer T47D cells were treated with DMSO, palbociclib, heterobifunctional compound CPD-343, or negative control compound CPD-380 for 6 days at doses approximating IC50 and IC90 concentrations determined in FIGS. 10A and 13. Cells were harvested by trypsinization, staining was carried out using the Annexin V Apoptosis Detection Kit. The percentages of early apoptotic (Annexin V^+7-AAD^−, lower right quadrant), late apoptotic (Annexin V^+7-AAD^+, upper right quadrant) and necrotic cells (Annexin V-7-AAD^+, upper left quadrant) are indicated on dot plots. […] Furthermore, we developed one ER^+ breast cancer T47D model with acquired resistance after long period of treatment with 1 μM palbociclib (over IC90). Cells were deemed resistant when growing in the presence of palbo at the same rate as parental cells. Palbo resistance was determined by CellTiter-Lumi cell viability assay.

| Compound | IC50 (Calu-1) | IC50 (NCI-H522) | IC50 (MDA-MB-157) | IC50 (MDA-MB-453) | IC50 (MDA-MB-468) | IC50 (Hs578T) | IC50 (BT-549) | IC50 (KURAMOCHI) | IC50 (OVCAR3) | IC50 (MIA PaCa-2) | IC50 (Cal-62) | P300/CBP Degradation (100 nM) (P300/CBP) | also measured |
| --- | --- | --- | --- | --- | --- | --- | --- | --- | --- | --- | --- | --- | --- |
| CN(C)C(=O)c1cc2cnc(Nc3ccc(N4CCNCC4)cn3)nc2n1C1CCCC1 [ribociclib] | > 10 µM | > 10 µM | > 10 µM | > 3 µM | > 10 µM | > 10 µM | > 10 µM | > 10 µM | > 10 µM | > 3 µM | > 10 µM | – | – |
| CCN1CCN(Cc2ccc(Nc3ncc(F)c(-c4cc(F)c5nc(C)n(C(C)C)c5c4)n3)nc2)CC1 [abemaciclib] | 29 µM | > 3 µM | > 10 µM | 0.03 µM | 3.09 µM | 1.2 µM | 2.07 µM | 2.5 µM | > 10 µM | 0.55 µM | 2.12 µM | – | – |
| CC(=O)N1CCc2c(c(N3CCCc4cc(-c5cnn(C)c5)c(C(F)F)cc43)nn2C2CCN(CC(=O)NCCCC(=O)Nc3ccccc3C(=O)Nc3nc(C)c([N+](=O)[O-])s3)CC2)C1 [CPD-211, 2-(4-(2-(4-(5-Acetyl-3-(7-(difluoromethyl)-6-(1-methyl-1H-pyrazol-4-yl)-3,4-dihydroquinolin-1(2H)-yl)-4,5,6,7-tetrahydro-1H-pyrazolo[4,3-c]pyridin-1-yl)piperidin-1-yl)acetamido)butanamido)-N-(4-methyl-5-nitrothiazol-2-yl)benzamide] | – | – | – | – | – | – | – | – | – | – | – | D (degradation activity < 30%) | – |
| CC(=O)N1CCc2c(c(N3CCCc4cc(-c5cnn(C)c5)c(C(F)F)cc43)nn2C2CCN(CC(=O)NCCCCCCCCCC(=O)Nc3ccccc3C(=O)Nc3nc(C)c([N+](=O)[O-])s3)CC2)C1 [CPD-217, 2-(10-(2-(4-(5-Acetyl-3-(7-(difluoromethyl)-6-(1-methyl-1H-pyrazol-4-yl)-3,4-dihydroquinolin-1(2H)-yl)-4,5,6,7-tetrahydro-1H-pyrazolo[4,3-c]pyridin-1-yl)piperidin-1-yl)acetamido)decanamido)-N-(4-methyl-5-nitrothiazol-2-yl)benzamide] | – | – | – | – | – | – | – | – | – | – | – | D (degradation activity < 30%) | – |
| CC(=O)N1CCc2c(c(N3CCCc4cc(-c5cnn(C)c5)c(C(F)F)cc43)nn2C2CCN(C(=O)CCCCCCC(=O)Nc3ccccc3C(=O)Nc3nc(C)c([N+](=O)[O-])s3)CC2)C1 [CPD-203, 2-(8-(4-(5-Acetyl-3-(7-(difluoromethyl)-6-(1-methyl-1H-pyrazol-4-yl)-3,4-dihydroquinolin-1(2H)-yl)-4,5,6,7-tetrahydro-1H-pyrazolo[4,3-c]pyridin-1-yl)piperidin-1-yl)-8-oxooctanamido)-N-(4-methyl-5-nitrothiazol-2-yl)benzamide] | – | – | – | – | – | – | – | – | – | – | – | D (degradation activity < 30%) | – |
| CC(=O)N1CCc2c(c(N3CCCc4cc(-c5cnn(C)c5)c(C(F)F)cc43)nn2C2CCN(C(=O)CCCCC(=O)Nc3ccccc3C(=O)Nc3nc(C)c([N+](=O)[O-])s3)CC2)C1 [CPD-201, 2-(6-(4-(5-Acetyl-3-(7-(difluoromethyl)-6-(1-methyl-1H-pyrazol-4-yl)-3,4-dihydroquinolin-1(2H)-yl)-4,5,6,7-tetrahydro-1H-pyrazolo[4,3-c]pyridin-1-yl)piperidin-1-yl)-6-oxohexanamido)-N-(4-methyl-5-nitrothiazol-2-yl)benzamide] | – | – | – | – | – | – | – | – | – | – | – | D (degradation activity < 30%) | – |
| CC(=O)N1CCc2c(c(N3CCCc4cc(-c5cnn(C)c5)c(C(F)F)cc43)nn2C2CCN(C(=O)CCCCCCCC(=O)Nc3ccccc3C(=O)Nc3nc(C)c([N+](=O)[O-])s3)CC2)C1 [CPD-204, 2-(9-(4-(5-Acetyl-3-(7-(difluoromethyl)-6-(1-methyl-1H-pyrazol-4-yl)-3,4-dihydroquinolin-1(2H)-yl)-4,5,6,7-tetrahydro-1H-pyrazolo[4,3-c]pyridin-1-yl)piperidin-1-yl)-9-oxononanamido)-N-(4-methyl-5-nitrothiazol-2-yl)benzamide] | – | – | – | – | – | – | – | – | – | – | – | D (degradation activity < 30%) | – |
| CC(=O)N1CCc2c(c(N3CCCc4cc(-c5cnn(C)c5)c(C(F)F)cc43)nn2C2CCN(CC(=O)NCC(=O)Nc3ccccc3C(=O)Nc3nc(C)c([N+](=O)[O-])s3)CC2)C1 [CPD-209, 2-(2-(2-(4-(5-Acetyl-3-(7-(difluoromethyl)-6-(1-methyl-1H-pyrazol-4-yl)-3,4-dihydroquinolin-1(2H)-yl)-4,5,6,7-tetrahydro-1H-pyrazolo[4,3-c]pyridin-1-yl)piperidin-1-yl)acetamido)acetamido)-N-(4-methyl-5-nitrothiazol-2-yl)benzamide] | – | – | – | – | – | – | – | – | – | – | – | D (degradation activity < 30%) | – |
| CC(=O)c1c(C)c2cnc(Nc3ccc(N4CCNCC4)cn3)nc2n(C2CCCC2)c1=O [Palbociclib, palbociclib] | > 10 µM | > 10 µM | > 10 µM | 2.7 µM | > 10 µM | > 10 µM | > 10 µM | > 10 µM | > 10 µM | > 3 µM | > 10 µM | – | Annexin V+ population (T47D cells; 100 nM): 15.9%; Annexin V+ population (T47D cells; 1 μM): 26.1% |
